Values quoted from earlier work, collected in patent publication US8868172B2, “Methods and systems for recommending an appropriate action to a patient for managing epilepsy and other neurological disorders” (Cyberonics, Inc., priority 2005, dated 2014).
Read-outs that look alike come from different tables or passages of the source.

What was measured:
rat hippocampal slices = settings: 10-30 μg/mL
[1] = system: cultured mouse spinal cord neurons; settings: 10-30 μg/mL
sodium channels = settings: in vitro
[2] = system: dopaminergic and serotonergic neurotransmission; settings: in vivo microdialysis
T-type Ca^2+ currents = settings: in vitro
[3] = system: GABA/benzodiazepine receptor ionophore complex; settings: allosteric, no changes in chloride flux
[4] = for plasma concentration average per daily dose of 1 mg/kg: long term therapy
[5] = not given; remark: listed apart in the source
[6] = per daily dose of 1 mg/kg of the drug itself

## NS(=O)(=O)Cc1noc2ccccc12 [zonisamide, 1,2-benzisoxazole-3-methanesulfonamide]
Rat hippocampal slices
  effect on neuronal or glial uptake of [3H]-GABA: without affecting
[1]
  effect on postsynaptic GABA or glutamate responses: without affecting
  effect on synaptically-driven electrical activity: suppresses
Sodium channels
  effect on sodium channels: blocks
Carbonic anhydrase
  carbonic anhydrase inhibiting activity: weak
[2]
  effect on dopaminergic and serotonergic neurotransmission: facilitates
T-type Ca^2+ currents
  effect on voltage-dependent, transient inward currents (T-type Ca2+ currents): reduces
[3]
  binding to the GABA/benzodiazepine receptor ionophore complex: binds

## CCC1(c2ccccc2)C(=O)NC(=O)NC1=O [phenobarbital]
[4]; long term therapy with primidone
  plasma concentration of phenobarbital per daily dose of 1 mg/kg of primidone: about 2 μg/ml
[4]; adults, per daily dose of 1 mg/kg
  plasma concentration average per daily dose of 1 mg/kg: about 10 μg/ml

## O=C1NC(=O)C(c2ccccc2)(c2ccccc2)N1 [Phenyloin, diphenylhydantoin]
other
  concentrations at which chronic control of seizures is generally obtained: above 10 μg/ml
[5]
  concentrations at which toxic effects such as nystagmus develop: around 20 μg/ml

## CCC1(c2ccccc2)C(=O)NCNC1=O [primidone, Primidone]
[4]; [6]
  plasma concentration average per daily dose of 1 mg/kg: about 1 μg/ml

## CCC1(C)CC(=O)NC1=O (centres unmarked) [ethosuximide, Ethosuximide]
[4]; [6]
  plasma concentration average per daily dose of 1 mg/kg: about 2 μg/ml
